Key:
[1] = target: T1, Nitric oxide synthase 3 (Homo sapiens, UniProt P29474); experiment: Inhibition of eNOS in human DLD-1 cells assessed as reduction of L-[14C]arginine to L-[14C]citrulline conversion; type: cell-based
T1 sequence (P29474 whole entry): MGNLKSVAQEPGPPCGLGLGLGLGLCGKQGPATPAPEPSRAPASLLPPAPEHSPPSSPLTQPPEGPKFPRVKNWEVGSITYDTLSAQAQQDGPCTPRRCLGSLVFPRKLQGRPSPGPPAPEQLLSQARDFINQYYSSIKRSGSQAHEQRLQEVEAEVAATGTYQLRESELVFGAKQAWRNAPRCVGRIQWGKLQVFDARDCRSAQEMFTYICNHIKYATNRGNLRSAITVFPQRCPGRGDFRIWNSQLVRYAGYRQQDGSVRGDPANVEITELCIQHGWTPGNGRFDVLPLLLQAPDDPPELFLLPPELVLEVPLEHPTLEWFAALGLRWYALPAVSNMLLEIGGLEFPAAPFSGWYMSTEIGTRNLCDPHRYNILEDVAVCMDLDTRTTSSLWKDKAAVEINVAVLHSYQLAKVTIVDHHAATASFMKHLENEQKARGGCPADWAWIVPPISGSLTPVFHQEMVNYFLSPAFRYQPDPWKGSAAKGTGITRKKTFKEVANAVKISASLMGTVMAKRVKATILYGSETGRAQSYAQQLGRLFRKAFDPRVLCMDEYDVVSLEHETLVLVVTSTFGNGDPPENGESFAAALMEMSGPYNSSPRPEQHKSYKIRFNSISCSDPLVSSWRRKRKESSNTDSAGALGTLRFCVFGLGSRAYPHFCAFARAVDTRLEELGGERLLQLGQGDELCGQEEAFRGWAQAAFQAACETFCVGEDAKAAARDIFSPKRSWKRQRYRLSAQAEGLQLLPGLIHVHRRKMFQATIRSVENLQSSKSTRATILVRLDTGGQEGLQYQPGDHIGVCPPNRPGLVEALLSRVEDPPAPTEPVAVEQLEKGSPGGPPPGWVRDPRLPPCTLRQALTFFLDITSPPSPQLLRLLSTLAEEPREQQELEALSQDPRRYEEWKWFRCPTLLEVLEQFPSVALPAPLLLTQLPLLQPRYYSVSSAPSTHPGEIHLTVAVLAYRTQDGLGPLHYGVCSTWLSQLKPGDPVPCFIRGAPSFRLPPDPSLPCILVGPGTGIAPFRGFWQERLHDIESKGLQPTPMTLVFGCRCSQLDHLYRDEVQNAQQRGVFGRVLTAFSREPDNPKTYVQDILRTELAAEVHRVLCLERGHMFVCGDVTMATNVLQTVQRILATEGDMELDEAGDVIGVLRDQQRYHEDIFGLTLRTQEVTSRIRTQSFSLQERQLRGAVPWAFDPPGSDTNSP

[2] = target: T2, Nitric oxide synthase, inducible (Homo sapiens, UniProt P35228); experiment: Inhibition of iNOS in human DLD-1 cells assessed as reduction of L-[14C]arginine to L-[14C]citrulline conversion; type: cell-based
[3] = target: Nitric oxide synthase 1 (Mus musculus, UniProt Q9Z0J4); experiment: Inhibition of mouse nNOS
[4] = target: T2, Nitric oxide synthase, inducible; experiment: Inhibition of human iNOS assessed as inhibition constant
[5] = target: T3, Nitric oxide synthase 1 (Rattus norvegicus, UniProt P29476); experiment: Inhibition of rat brain nNOS expressed in baculovirus-infected Sf9 cells […] assessed as reduction of [3H]-arginine to [3H]-citrulline conversion
[6] = target: T4, Nitric oxide synthase 1 (Homo sapiens, UniProt P29475); experiment: Inhibition of human nNOS assessed as dissociation constant
[7] = target: T1, Nitric oxide synthase 3; experiment: Inhibition of human eNOS assessed as inhibition constant
[8] = target: T4, Nitric oxide synthase 1; experiment: Inhibition of human nNOS
[9] = target: T2, Nitric oxide synthase, inducible; experiment: Inhibition of human iNOS expressed in baculovirus infected Spodoptera frugiperda cell using L-arginine as substrate preincubated for 15 mins followed by substrate addition measured after 15 mins by oxyhaemoglobin assay
[10] = target: T4, Nitric oxide synthase 1; experiment: Inhibition of human nNOS expressed in baculovirus infected Spodoptera frugiperda cell using L-arginine as substrate preincubated for 15 mins followed by substrate addition measured after 15 mins by oxyhaemoglobin assay
[11] = target: T1, Nitric oxide synthase 3; experiment: Inhibition of human eNOS expressed in baculovirus infected Spodoptera frugiperda cell using L-arginine as substrate preincubated for 15 mins followed by substrate addition measured after 15 mins by oxyhaemoglobin assay
[12] = target: T3, Nitric oxide synthase 1; experiment: Inhibition of rat nNOS transfected in HEK293 cells assessed as inhibition constant in presence of NADPH by spectrophotometric analysis; type: cell-based
[13] = target: T5, Nitric oxide synthase, inducible (Mus musculus, UniProt P29477); experiment: Inhibition of iNOS in mouse RAW264.7 cells assessed as inhibition constant in presence of NADPH; type: cell-based
T5 sequence (P29477 whole entry): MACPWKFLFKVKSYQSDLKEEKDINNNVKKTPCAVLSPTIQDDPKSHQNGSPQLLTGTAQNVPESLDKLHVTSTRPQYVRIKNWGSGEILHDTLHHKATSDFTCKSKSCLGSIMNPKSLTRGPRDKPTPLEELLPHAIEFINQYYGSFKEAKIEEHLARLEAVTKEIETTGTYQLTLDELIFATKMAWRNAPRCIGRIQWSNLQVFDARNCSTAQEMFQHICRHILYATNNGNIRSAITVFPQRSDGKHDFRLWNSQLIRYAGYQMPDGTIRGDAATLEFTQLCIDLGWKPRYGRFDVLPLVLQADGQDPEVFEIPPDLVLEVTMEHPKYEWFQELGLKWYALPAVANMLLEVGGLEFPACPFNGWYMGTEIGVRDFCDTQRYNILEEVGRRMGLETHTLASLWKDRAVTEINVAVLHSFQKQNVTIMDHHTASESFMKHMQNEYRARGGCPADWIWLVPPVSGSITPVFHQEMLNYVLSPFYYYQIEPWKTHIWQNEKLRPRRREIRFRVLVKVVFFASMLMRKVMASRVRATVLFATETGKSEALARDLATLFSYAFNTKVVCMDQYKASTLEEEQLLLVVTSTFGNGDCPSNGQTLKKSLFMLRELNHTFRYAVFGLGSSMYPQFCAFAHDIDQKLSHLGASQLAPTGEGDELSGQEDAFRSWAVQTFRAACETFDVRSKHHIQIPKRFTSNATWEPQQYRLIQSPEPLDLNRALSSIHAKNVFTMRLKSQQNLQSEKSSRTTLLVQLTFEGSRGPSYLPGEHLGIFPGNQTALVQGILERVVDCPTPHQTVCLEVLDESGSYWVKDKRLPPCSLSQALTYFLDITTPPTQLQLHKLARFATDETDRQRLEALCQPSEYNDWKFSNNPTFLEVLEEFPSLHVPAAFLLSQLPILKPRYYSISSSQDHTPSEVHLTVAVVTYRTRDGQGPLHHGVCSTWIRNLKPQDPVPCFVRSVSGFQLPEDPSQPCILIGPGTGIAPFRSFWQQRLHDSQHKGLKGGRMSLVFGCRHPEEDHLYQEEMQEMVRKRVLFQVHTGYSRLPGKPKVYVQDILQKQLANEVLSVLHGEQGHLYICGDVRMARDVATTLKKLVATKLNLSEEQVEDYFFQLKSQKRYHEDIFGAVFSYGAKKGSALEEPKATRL

[14] = target: T4, Nitric oxide synthase 1; experiment: Inhibition of nNOS in human DLD-1 cells assessed as reduction of L-[14C]arginine to L-[14C]citrulline conversion; type: cell-based
[15] = Inhibition of bovine nNOS; parameters: species or system Bos taurus
[16] = target: T6, Nitric oxide synthase 3 (Bos taurus, UniProt P29473); experiment: Inhibition of bovine eNOS
T6 sequence (P29473 whole entry): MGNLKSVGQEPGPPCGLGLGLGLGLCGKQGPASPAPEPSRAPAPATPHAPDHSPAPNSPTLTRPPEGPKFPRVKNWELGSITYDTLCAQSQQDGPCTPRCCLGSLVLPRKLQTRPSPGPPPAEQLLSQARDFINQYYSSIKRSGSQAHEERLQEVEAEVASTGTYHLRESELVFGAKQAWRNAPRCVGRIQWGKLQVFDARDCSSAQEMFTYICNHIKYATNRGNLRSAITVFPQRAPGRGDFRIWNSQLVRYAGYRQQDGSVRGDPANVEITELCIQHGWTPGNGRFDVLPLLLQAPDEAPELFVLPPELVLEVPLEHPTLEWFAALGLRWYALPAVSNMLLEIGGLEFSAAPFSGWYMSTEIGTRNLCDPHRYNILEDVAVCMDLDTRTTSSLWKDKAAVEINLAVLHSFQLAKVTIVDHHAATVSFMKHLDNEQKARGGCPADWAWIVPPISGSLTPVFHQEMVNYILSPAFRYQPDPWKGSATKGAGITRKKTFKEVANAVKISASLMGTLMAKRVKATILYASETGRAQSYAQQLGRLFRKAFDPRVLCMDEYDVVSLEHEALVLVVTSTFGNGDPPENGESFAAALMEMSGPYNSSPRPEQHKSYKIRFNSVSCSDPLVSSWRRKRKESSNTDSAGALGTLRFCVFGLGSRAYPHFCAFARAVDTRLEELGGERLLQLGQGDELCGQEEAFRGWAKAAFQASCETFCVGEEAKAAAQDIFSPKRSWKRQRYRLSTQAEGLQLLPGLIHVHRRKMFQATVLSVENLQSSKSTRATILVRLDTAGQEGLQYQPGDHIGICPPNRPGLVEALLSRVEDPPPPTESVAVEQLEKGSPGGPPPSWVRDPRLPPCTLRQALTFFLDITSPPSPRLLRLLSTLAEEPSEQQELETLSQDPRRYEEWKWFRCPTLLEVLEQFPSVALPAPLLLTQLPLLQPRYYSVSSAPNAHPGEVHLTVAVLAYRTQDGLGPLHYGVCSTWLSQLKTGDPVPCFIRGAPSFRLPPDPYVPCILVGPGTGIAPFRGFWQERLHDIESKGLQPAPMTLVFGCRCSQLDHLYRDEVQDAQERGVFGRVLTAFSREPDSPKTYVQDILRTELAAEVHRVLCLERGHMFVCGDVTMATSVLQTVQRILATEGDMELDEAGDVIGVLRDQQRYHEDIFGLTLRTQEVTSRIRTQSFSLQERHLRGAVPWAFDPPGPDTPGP

[17] = target: T5, Nitric oxide synthase, inducible; experiment: Inhibition of mouse iNOS
[18] = target: N(G),N(G)-dimethylarginine dimethylaminohydrolase 1 (Homo sapiens, UniProt O94760); experiment: Inhibition of recombinant human DDAH1 expressed in HEK293 cells using ADMA as substrate preincubated for 5 mins
Sequence of N(G),N(G)-dimethylarginine dimethylaminohydrolase 1 (O94760 whole entry): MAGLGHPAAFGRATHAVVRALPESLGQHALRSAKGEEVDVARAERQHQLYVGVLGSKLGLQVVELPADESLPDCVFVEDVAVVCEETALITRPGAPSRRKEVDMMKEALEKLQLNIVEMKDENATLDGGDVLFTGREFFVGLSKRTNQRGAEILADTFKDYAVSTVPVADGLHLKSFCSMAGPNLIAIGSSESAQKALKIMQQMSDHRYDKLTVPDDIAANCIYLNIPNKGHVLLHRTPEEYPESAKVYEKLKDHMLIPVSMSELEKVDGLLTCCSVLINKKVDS

T2 sequence (P35228 whole entry): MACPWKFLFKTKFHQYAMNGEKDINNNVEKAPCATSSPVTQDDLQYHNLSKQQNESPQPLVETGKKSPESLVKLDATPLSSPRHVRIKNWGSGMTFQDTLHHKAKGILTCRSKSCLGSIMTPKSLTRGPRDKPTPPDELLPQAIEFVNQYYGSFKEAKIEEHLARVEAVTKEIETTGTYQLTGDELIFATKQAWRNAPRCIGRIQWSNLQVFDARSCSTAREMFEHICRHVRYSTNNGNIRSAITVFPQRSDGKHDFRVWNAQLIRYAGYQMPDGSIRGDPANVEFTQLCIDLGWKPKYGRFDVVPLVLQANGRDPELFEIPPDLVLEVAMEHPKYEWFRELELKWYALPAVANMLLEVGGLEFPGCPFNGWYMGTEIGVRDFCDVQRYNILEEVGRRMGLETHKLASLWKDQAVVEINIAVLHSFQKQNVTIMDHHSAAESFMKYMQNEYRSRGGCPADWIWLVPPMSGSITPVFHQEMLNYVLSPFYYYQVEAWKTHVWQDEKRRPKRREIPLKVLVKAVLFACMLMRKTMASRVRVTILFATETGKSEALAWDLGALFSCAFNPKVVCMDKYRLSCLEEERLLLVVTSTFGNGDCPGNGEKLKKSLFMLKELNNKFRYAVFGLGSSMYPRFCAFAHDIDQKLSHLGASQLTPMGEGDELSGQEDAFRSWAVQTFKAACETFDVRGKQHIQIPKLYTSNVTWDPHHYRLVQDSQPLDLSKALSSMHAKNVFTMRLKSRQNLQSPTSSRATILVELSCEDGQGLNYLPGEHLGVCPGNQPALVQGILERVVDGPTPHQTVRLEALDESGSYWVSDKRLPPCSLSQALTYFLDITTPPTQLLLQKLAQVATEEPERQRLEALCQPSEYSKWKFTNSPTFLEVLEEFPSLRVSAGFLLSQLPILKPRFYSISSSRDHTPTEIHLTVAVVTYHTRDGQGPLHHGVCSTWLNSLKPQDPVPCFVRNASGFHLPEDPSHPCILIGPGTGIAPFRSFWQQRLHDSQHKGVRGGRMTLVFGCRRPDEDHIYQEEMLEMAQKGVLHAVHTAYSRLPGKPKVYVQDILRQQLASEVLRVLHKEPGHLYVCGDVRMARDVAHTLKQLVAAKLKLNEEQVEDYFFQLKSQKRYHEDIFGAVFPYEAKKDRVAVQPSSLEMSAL
T4 sequence (P29475 whole entry): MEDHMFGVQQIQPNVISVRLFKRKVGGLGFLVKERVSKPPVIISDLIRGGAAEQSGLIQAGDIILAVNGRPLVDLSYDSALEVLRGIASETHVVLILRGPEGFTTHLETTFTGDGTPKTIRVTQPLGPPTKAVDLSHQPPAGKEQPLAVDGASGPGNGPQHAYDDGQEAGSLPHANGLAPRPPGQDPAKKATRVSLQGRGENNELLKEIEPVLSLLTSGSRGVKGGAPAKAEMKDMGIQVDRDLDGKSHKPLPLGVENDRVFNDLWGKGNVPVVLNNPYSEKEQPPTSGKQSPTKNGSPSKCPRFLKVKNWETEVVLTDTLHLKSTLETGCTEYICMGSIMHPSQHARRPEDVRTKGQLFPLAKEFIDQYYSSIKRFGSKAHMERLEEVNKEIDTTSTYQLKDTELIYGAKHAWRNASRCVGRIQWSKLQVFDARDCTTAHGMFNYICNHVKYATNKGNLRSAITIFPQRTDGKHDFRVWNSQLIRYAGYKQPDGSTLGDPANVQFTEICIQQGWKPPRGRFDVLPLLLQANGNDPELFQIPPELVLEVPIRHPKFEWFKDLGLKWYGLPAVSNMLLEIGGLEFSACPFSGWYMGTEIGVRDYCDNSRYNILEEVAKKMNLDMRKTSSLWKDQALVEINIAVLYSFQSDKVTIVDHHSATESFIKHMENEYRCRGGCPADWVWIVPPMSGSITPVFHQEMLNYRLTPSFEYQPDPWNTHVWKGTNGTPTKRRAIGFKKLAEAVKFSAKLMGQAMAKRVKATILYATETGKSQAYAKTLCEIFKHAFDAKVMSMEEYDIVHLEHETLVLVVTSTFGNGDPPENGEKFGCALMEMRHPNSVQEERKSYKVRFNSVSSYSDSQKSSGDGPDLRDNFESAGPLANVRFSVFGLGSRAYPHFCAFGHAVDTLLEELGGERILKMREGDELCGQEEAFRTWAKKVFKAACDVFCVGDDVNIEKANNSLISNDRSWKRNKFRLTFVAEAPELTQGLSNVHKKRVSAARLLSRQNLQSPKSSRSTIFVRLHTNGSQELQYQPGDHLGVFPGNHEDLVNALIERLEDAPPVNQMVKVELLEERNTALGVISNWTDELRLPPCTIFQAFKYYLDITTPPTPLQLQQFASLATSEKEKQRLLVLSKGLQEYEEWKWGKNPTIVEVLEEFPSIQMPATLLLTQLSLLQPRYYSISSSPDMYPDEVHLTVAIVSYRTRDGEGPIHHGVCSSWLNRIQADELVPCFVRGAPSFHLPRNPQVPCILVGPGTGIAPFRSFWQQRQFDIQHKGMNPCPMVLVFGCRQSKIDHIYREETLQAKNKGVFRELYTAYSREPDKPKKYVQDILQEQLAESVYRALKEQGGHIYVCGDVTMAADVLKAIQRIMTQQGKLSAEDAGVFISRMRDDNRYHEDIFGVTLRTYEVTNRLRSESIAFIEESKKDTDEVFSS
T3 sequence (P29476 whole entry): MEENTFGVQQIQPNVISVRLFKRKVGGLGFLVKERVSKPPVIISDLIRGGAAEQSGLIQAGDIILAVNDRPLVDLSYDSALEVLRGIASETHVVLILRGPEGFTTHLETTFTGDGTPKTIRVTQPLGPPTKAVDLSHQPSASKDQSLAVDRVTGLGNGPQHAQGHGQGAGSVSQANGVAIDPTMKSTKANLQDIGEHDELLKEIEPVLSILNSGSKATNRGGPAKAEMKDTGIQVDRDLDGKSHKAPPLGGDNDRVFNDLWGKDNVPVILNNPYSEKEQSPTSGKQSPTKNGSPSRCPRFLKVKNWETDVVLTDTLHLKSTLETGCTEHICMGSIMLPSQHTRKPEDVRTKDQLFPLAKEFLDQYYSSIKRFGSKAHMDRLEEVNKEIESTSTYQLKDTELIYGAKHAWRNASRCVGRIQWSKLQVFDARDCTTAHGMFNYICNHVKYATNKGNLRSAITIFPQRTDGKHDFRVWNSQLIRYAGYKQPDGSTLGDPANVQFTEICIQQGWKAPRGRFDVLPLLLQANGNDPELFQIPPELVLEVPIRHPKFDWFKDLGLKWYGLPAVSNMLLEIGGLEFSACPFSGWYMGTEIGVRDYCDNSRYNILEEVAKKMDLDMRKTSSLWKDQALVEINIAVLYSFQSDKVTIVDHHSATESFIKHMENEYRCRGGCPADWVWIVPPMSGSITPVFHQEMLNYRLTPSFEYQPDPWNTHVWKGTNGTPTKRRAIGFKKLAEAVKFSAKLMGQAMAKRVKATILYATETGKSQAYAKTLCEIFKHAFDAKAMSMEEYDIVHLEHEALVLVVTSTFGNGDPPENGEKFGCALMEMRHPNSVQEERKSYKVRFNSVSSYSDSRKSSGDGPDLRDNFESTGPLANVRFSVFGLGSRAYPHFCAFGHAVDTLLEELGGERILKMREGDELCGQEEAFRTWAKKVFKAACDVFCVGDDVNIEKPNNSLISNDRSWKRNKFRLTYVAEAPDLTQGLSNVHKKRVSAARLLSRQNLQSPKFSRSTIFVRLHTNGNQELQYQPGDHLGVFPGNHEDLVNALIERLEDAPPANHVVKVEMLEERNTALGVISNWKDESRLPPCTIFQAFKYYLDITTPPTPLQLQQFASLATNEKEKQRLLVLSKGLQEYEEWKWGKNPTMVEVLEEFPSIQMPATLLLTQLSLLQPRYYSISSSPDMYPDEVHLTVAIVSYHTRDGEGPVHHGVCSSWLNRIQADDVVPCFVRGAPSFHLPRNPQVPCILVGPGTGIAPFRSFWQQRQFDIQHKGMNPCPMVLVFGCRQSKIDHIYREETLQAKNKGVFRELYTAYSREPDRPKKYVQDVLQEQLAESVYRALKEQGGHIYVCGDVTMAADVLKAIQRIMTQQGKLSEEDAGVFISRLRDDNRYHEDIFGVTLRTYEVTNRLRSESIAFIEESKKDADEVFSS

Compound: CCSC(=N)N [ETHYLISOTHIOUREA]
- Ki [1]: 0.039 µM
- Ki [2]: 0.19 µM

Compound: CC(=N)NCCC[C@H](N)C(=O)O [L-NIO]
- IC50 [3]: 3 µM

Compound: COC(=O)[C@@H](N)CCCNC(=N)N[N+](=O)[O-] [L-NAME]
- Ki [4]: 70 µM
- IC50 [5]: 70 µM

Compound: CCSC(=N)NCCC[C@H](N)C(=O)O
- Kd [6]: 0.001 µM
- Ki [7]: 0.024 µM
- Ki [4]: 0.017 µM
- IC50 [8]: 0.001 µM

Compound: CC(=N)NCCSCC[C@H](N)C(=O)O [GW-274150]
- IC50 [9]: 2.19 µM
- IC50 [10]: 177 µM
- IC50 [11]: 177 µM

Compound: CN(C)C(=N)NCCC[C@H](N)C(=O)O
- Ki [12]: 0.67 µM

Compound: N=C(NCCC[C@H](N)C(=O)O)N[N+](=O)[O-] [NITROARGININE]
- Ki [13]: 4.4 µM

Compound: N=C(N)SCCc1cccc(CCSC(=N)N)c1
- Ki [14]: 0.037 µM
- Ki [1]: 9 µM
- Ki [2]: 0.047 µM

Compound: N=C(NN)NO
- IC50 [15]: 17 µM
- IC50 [16]: 23 µM
- IC50 [17]: 23 µM

Compound: COCCNC(=N)NCCC[C@H](N)C(=O)NS(C)(=O)=O
- IC50 [18]: 3 µM

Compound: N=C(N)SCc1ccccc1 [BENZYL CARBAMIMIDOTHIOATE]
- Ki [14]: 0.63 µM
- Ki [1]: 23 µM
- Ki [2]: 5.6 µM

Compound: COCCNC(=N)NCCC[C@H](N)C(=O)NO
- IC50 [18]: 131 µM

Reference: ChEMBL document CHEMBL5360519, “Chemical similarities and differences among inhibitors of nitric oxide synthase, arginase and dimethylarginine dimethylaminohydrolase-1: Implications for the design of novel enzyme inhibitors modulating the nitric oxide pathway” (Bioorg Med Chem, 2022)
